This passage reports IC50 results from ChEMBL document CHEMBL3526080, “In vitro inhibition of the bile salt export pump correlates with risk of cholestatic drug-induced liver injury in humans” (Drug Metab Dispos, 2012).

The target of assay [1] is Bile salt export pump (Homo sapiens, UniProt O95342). In words: Inhibition of human BSEP expressed in plasma membrane vesicles of Sf21 cells assessed as inhibition of ATP-dependent [3H]taurocholate uptake. In kind it is cell membranes.
Assay [2] concerns the target Bile salt export pump (Rattus norvegicus, UniProt O70127). In words: Inhibition of Sprague-Dawley rat Bsep expressed in plasma membrane vesicles of Sf21 cells assessed as inhibition of ATP-dependent [3H]taurocholate uptake. It is filed as cell membranes.

Sequence of Bile salt export pump (Homo sapiens, UniProt O95342) (O95342 whole entry): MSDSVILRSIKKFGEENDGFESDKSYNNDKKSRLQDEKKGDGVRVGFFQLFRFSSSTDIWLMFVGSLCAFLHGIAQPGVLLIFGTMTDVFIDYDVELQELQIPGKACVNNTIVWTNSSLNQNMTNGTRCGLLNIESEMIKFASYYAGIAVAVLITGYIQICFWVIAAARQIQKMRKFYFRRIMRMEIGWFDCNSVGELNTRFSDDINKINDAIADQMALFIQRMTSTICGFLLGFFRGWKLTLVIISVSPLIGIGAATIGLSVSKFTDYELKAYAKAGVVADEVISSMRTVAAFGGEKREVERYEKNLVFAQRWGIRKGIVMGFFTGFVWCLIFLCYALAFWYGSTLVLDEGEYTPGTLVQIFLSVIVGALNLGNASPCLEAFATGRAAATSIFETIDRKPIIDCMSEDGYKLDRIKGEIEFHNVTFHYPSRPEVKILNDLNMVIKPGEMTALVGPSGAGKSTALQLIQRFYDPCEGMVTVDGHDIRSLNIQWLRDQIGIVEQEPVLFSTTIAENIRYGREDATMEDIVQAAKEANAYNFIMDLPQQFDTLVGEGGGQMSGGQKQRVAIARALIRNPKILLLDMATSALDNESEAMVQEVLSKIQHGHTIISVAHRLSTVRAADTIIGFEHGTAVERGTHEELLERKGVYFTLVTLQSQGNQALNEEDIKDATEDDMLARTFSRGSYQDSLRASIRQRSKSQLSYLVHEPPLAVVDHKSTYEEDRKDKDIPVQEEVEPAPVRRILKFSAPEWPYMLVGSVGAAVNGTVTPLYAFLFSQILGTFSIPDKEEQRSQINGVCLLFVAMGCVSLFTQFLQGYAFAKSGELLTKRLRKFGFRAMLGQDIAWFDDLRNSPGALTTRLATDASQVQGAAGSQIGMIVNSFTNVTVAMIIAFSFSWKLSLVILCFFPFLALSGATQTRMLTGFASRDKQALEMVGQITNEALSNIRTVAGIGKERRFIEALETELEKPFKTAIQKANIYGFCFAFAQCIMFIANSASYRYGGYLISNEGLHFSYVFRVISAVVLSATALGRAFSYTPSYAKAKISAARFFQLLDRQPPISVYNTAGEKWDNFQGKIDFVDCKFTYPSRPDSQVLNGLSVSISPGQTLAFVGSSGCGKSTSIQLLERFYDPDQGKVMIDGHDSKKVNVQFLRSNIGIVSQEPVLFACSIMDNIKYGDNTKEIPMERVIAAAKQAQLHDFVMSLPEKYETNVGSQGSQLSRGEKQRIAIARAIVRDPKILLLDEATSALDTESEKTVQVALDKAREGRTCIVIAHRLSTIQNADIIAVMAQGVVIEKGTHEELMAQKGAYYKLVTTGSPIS
Sequence of Bile salt export pump (Rattus norvegicus, UniProt O70127) (O70127 whole entry): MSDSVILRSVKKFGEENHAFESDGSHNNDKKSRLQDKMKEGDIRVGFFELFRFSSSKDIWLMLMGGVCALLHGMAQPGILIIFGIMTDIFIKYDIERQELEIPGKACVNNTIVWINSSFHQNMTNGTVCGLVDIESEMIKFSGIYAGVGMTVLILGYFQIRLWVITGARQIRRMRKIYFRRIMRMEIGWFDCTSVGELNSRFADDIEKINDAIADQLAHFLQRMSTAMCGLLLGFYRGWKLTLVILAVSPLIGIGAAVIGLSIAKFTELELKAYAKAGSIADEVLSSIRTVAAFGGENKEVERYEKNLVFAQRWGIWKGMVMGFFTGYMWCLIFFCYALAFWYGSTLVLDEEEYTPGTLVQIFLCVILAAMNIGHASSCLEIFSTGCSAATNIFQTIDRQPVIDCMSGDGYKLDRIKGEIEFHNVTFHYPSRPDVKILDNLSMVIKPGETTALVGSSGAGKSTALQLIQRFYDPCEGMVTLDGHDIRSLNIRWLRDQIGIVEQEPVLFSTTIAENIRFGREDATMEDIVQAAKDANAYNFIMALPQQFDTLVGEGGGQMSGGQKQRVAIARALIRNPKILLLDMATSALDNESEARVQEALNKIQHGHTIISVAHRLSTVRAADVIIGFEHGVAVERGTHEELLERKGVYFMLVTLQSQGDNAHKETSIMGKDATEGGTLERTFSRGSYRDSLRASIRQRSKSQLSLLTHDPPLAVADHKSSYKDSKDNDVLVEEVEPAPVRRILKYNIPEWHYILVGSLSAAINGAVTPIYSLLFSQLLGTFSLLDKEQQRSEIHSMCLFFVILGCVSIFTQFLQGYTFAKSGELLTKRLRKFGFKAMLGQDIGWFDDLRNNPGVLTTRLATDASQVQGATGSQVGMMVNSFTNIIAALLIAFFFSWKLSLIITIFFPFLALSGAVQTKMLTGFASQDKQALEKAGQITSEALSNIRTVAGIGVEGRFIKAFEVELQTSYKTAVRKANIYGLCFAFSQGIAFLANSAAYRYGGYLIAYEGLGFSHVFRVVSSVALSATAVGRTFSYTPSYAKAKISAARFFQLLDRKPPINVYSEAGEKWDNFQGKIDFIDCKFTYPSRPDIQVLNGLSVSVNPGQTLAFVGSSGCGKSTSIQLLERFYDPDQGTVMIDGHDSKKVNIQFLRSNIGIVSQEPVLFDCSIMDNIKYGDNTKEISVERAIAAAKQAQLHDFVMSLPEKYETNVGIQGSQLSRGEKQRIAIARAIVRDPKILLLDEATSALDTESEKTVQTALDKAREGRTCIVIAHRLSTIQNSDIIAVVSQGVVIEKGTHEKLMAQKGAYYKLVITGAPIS

Broadly, the IC50 is the midpoint of a concentration-inhibition curve. Take `CCc1ccc(CCOc2ccc(CC3SC(=O)NC3=O)cc2)nc1` (centres undefined) [PIOGLITAZONE]: the figures for the IC50 at Bile salt export pump [1] and on Bile salt export pump [2] were 0.3 µM and 2 µM, respectively.

As for `CC(=O)Nc1ccc(OCC(O)CNC(C)C)cc1` (centres undefined) [PRACTOLOL], the IC50 at Bile salt export pump [1] and at Bile salt export pump [2] was greater than 1000 µM in each case.

Turning to `O=C(C1CCCCC1)N1CC(=O)N2CCc3ccccc3C2C1` (centres undefined) [PRAZIQUANTEL], the IC50 at Bile salt export pump [1] is 96.8 µM; on Bile salt export pump [2], 153 µM.

With `CCCN(CCC)S(=O)(=O)c1ccc(C(=O)O)cc1` [PROBENECID], the concentration for half-maximal inhibition (IC50) on Bile salt export pump [1] stood at 565 µM; on Bile salt export pump [2] it was 510 µM.

In the case of `Cc1ncc(CO)c(CO)c1O` [PYRIDOXINE], the 50% inhibitory concentration (IC50) on Bile salt export pump [1] and on Bile salt export pump [2] was greater than 1000 µM each time.

As for `CO[C@H]1/C=C/O[C@@]2(C)Oc3c(C)c(O)c4c(O)c(c(/C=N/N5CCN(C)CC5)c(O)c4c3C2=O)NC(=O)/C(C)=C\C=C\[C@H](C)[C@H](O)[C@@H](C)[C@@H](O)[C@@H](C)[C@H](OC(C)=O)[C@@H]1C` [RIFAMPIN], the IC50 stood at 11.3 µM on Bile salt export pump [1] and 34.7 µM on Bile salt export pump [2].

Consider `CO[C@H]1/C=C/O[C@@]2(C)Oc3c(C)c(O)c4c(O)c(cc(O)c4c3C2=O)NC(=O)/C(C)=C\C=C\[C@H](C)[C@H](O)[C@@H](C)[C@@H](O)[C@@H](C)[C@H](OC(C)=O)[C@@H]1C` [RIFAMYCIN], for which the IC50 came out at 6.3 µM on Bile salt export pump [1] and 3.1 µM at Bile salt export pump [2].

Consider `CN(CCOc1ccc(CC2SC(=O)NC2=O)cc1)c1ccccn1` (centres undefined) [ROSIGLITAZONE], for which the IC50 is 6.4 µM on Bile salt export pump [1] and 40 µM at Bile salt export pump [2].

Take `O=C(O)c1ccccc1O` [SALICYLIC ACID]: the IC50 at Bile salt export pump [1] and on Bile salt export pump [2] was greater than 1000 µM each time.

Consider `[H]/N=C(/N)N[C@H]1[C@H](O)[C@@H](O)[C@H](O[C@@H]2O[C@@H](C)[C@](O)(C=O)[C@H]2O[C@@H]2O[C@@H](CO)[C@H](O)[C@@H](O)[C@@H]2NC)[C@@H](N/C(N)=N\[H])[C@@H]1O` [STREPTOMYCIN], for which the 50% inhibitory concentration (IC50) at Bile salt export pump [1] and on Bile salt export pump [2] was greater than 1000 µM each time.

Consider `CCN1CCCC1CNC(=O)c1cc(S(N)(=O)=O)ccc1OC` (centres undefined) [SULPIRIDE], for which the IC50 at Bile salt export pump [1] and at Bile salt export pump [2] was greater than 1000 µM throughout.

`Nc1c2c(nc3ccccc13)CCCC2` [TACRINE]: the IC50 at Bile salt export pump [1] and at Bile salt export pump [2] was greater than 1000 µM in each case.

With `CCCCNC(=O)NS(=O)(=O)c1ccc(C)cc1` [TOLBUTAMIDE], the IC50 on Bile salt export pump [1] and on Bile salt export pump [2] was greater than 1000 µM throughout.

As for `Cc1ccc(C(=O)c2cc(O)c(O)c([N+](=O)[O-])c2)cc1` [TOLCAPONE], the values for the IC50 at Bile salt export pump [1] and on Bile salt export pump [2] were 120 µM and 47.2 µM, respectively.

Regarding `Cc1c(C)c2c(c(C)c1O)CCC(C)(COc1ccc(CC3SC(=O)NC3=O)cc1)O2` (centres undefined) [TROGLITAZONE], the IC50 at Bile salt export pump [1] turned out to be 2.7 µM; on Bile salt export pump [2], 10.6 µM.

In the case of `CCCC(CCC)C(=O)O` [VALPROIC ACID], the IC50 on Bile salt export pump [1] and at Bile salt export pump [2] was greater than 1000 µM each time.

As for `CC(c1cc2ccccc2s1)N(O)C(N)=O` (centres undefined) [ZILEUTON], the values for the IC50 on Bile salt export pump [1] and on Bile salt export pump [2] were greater than 1000 µM and 564 µM, respectively.
